{"source": "patent US4172118A", "about": "“Diphenylamine containing therapeutic composition and its applications, particularly in veterinary medicine” (METABIO, priority 1976, dated 1979)", "key": {"mice [1]": {"test_system": "mice", "assay": "Acute toxicity of hexachlorophene with/without diphenylamine in mice (death rate)", "format": "in vivo, mice (male)", "conditions": "mice, oral; conclusion in words", "protocol": "(§1) Acute toxicity tests were conducted in mice. The death rate noted in mice administered hexachlorophene alone was compared with that noted in mice which were administered the same dosages of hexachlorophene, but which had previously been protected by administration of diphenylamine.\n(§2) Ten groups of 10 male mice each were used in such experiments. Five reference groups were given hexachlorophene alone, at increasing dosages. The five other groups were administered diphenylamine at a dosage of 1.5 mg/kg one-half hour prior to administration of the same hexachlorophene dosages as the reference animals. Both compounds were administered orally, using peanut oil as the excipient.\n(§3) The data relating to the death rate variations in both groups, with respect to the dosages of compound used, are set forth in the following Table."}, "myases": {"test_system": "myases", "conditions": "in animals; Merck Index, 8th Ed., p. 387; cited from earlier work"}, "[2]": {"conditions": "C.A., Vol. 50-15949d; cited from earlier work"}, "mice [3]": {"test_system": "mice", "assay": "Acute toxicity of bithionol sulfoxide with/without diphenylamine in mice (death rate)", "format": "in vivo, mice (male)", "conditions": "mice, oral; conclusion in words", "protocol": "(§4) The acute toxicity of bithionol sulfoxide was compared with that of a combination of 20 parts bithionol sulfoxide per part diphenylamine.\n(§5) Ten groups of 10 male mice each were used for this test. Five reference groups were administered increasing dosages of bithionol sulfoxide alone. The five other groups were administered the bithionol sulfoxide+diphenylamine combination. The test materials were administered orally.\n(§6) The data relating to the death rate variations in both groups, with respect to the dosages of product used, are set forth in the following Table."}, "[4]": {"conditions": "C.A., Vol. 54 17708g; cited from earlier work"}, "sheep": {"test_system": "sheep", "assay": "Hexachlorophene oral intoxication in sheep with/without diphenylamine (deaths)", "format": "in vivo", "conditions": "for Number of sheep killed: of 5 sheep", "protocol": "7. Six groups of 5 sheep each were orally intoxicated with increasing dosages of hexachlorophene (135-142.5-150 mg/kg) with or without diphenylamine."}, "Nematodes": {"test_system": "Nematodes", "conditions": "in dogs; C.A., Vol. 35, 197, 9; cited from earlier work"}, "[5]": {"test_system": "serum glutamic oxalacetic transaminase (S.G.O.T.)", "assay": "Carbon tetrachloride intoxication in ewes, S.G.O.T. level", "format": "in vivo, Ile-de-France ewes", "conditions": "CCl4 3600 mg/kg sub-cutaneous", "protocol": "4. Two groups of non-pregnant Ile-de-France ewes, weighing from 46 to 68 kg, were intoxicated with carbon tetrachloride administered sub-cutaneously at a dosage of 3600 mg/kg, as a suspension in vaseline oil.\nThe second group alone was simultaneously administered diphenylamine at a dosage of 100 mg/kg.\nThe criterion used to evaluate the magnitude of the intoxication was the variation of the serum glutamic oxalacetic transaminase (S.G.O.T.) level.\nIn the following Table, the percent increase of said serum levels is given with respect to the level determined prior to the intoxication."}, "Limousin ewes": {"test_system": "Limousin ewes", "assay": "Hexachlorophene intoxication in ewes, clinical signs and weight", "format": "in vivo", "protocol": "5. Two groups of non-pregnant Limousin ewes, weighing from 45 to 52 kg, were intoxicated with hexachlorophene at a dosage of 90 mg/kg, administered orally; whereas the generally used therapeutic dosage is 10 mg/kg.\nThe clinical signs, and particularly the variation of the weight curve, were noted over a 5 day period of time.\nOne of the groups was simultaneously administered 2 mg/kg diphenylamine, by the same route of administration."}, "liver": {"test_system": "liver", "assay": "Pentobarbital-induced sleeping test in mice (hepato-toxicity of carbon tetrachloride)", "format": "in vivo", "conditions": "CCl4 0.075 ml/kg; protected group with diphenylamine 4 mg/kg; reference group 20 mn", "protocol": "3. […] This test provides a measure of the capability of the liver to metabolize some toxic materials. The principle is as follows: in normal mice, a certain sleeping time is induced by a certain dosage of pentobarbital; in mice which have been administered 48 hours previously a hepato-toxic material, the same pentobarbital dosage induces a longer sleeping time, because the injured liver has greater difficulty in metabolizing pentobarbital; on administration of a supposedly detoxicant material 24 hours after the toxic material, one may examine whether sleeping time is reduced or not and, thus, may quantify the resulting protection.\nThis test is effected using carbon tetrachloride as toxicant at a dosage of 0.075 ml/kg, and diphenylamine as protective material at a dosage of 4 mg/kg."}, "[6]": {"assay": "Acute toxicity of hexachlorophene with/without diphenylamine in mice (death rate)", "format": "in vivo, mice (male)", "conditions": "mouse, in vivo, 7 days, combination: diphenylamine 1.5 mg/kg oral one-half hour prior", "protocol": "as §1, §2, §3"}, "[7]": {"assay": "Acute toxicity of bithionol sulfoxide with/without diphenylamine in mice (death rate)", "format": "in vivo, mice (male)", "conditions": "mouse, in vivo, 7 days", "protocol": "as §4, §5, §6"}, "[8]": {"conditions": "hexachlorophene 90 mg/kg oral, 5 days, protected group with diphenylamine 2 mg/kg oral"}}, "data": [{"smiles": "c1ccc(Nc2ccccc2)cc1", "note": "[diphenylamine]", "values": [{"measurement": "hexachlorophene-induced acute toxicity", "setting": "mice [1]", "value": "reduces the hexachlorophene-induced acute toxicity in mice"}, {"measurement": "action against certain myases", "setting": "myases", "value": "action against certain myases"}, {"measurement": "antiparasitic activity", "setting": "[2]", "value": "antiparasitic activity"}, {"measurement": "bithionol sulfoxide-induced acute toxicity", "setting": "mice [3]", "value": "reduces the bithionol sulfoxide-induced acute toxicity in mice"}, {"measurement": "anticonvulsant activity", "setting": "[4]", "value": "anticonvulsant activity"}, {"measurement": "death rate (in words)", "setting": "sheep; hexachlorophene 135-142.5-150 mg/kg oral, sheep", "value": "significant decrease of the death rate"}, {"measurement": "action against certain Nematodes", "setting": "Nematodes", "value": "against certain Nematodes in dogs"}, {"measurement": "S.G.O.T. level increase (in words)", "setting": "[5]; diphenylamine 100 mg/kg", "value": "S.G.O.T. level increases in a significantly reduced manner"}, {"measurement": "weight stabilization and reduction of the clinical signs", "setting": "Limousin ewes; hexachlorophene 90 mg/kg, diphenylamine 2 mg/kg, oral, conclusion in words", "value": "weight stabilization and the most substantial reduction of the clinical signs"}]}, {"smiles": "ClC(Cl)(Cl)Cl", "note": "[CCl4, carbon tetrachloride]", "values": [{"measurement": "Sleeping time", "setting": "liver", "value": 109, "unit": "mn"}, {"measurement": "Percent S.G.O.T. increase", "setting": "[5]; vs level prior to intoxication, Group II with diphenylamine 100 mg/kg simultaneously", "value": 91, "unit": "%"}]}, {"smiles": "Oc1c(Cl)cc(Cl)c(Cl)c1Cc1c(O)c(Cl)cc(Cl)c1Cl", "note": "[hexachlorophene]", "values": [{"measurement": "mortality at 168 h", "setting": "[6]; hexachlorophene 109.6 mg/kg oral", "value": 10, "unit": "%"}, {"measurement": "mortality at 168 h", "setting": "[6]; hexachlorophene 128.2 mg/kg oral", "value": 20, "unit": "%"}, {"measurement": "mortality at 168 h", "setting": "[6]; hexachlorophene 150 mg/kg oral", "value": 20, "unit": "%"}, {"measurement": "mortality at 168 h", "setting": "[6]; hexachlorophene 175.5 mg/kg oral", "value": 40, "unit": "%"}, {"measurement": "mortality at 168 h", "setting": "[6]; hexachlorophene 205.3 mg/kg oral", "value": 60, "unit": "%"}, {"measurement": "Number of sheep killed", "setting": "sheep; hexachlorophene 135 mg/kg oral, diphenylamine 0 or 1.58 mg/kg", "value": 1}, {"measurement": "Number of sheep killed", "setting": "sheep; hexachlorophene 142.5 mg/kg oral, diphenylamine 0 or 1.67 mg/kg", "value": 4}, {"measurement": "Number of sheep killed", "setting": "sheep; hexachlorophene 150 mg/kg oral, diphenylamine 0 or 1.76 mg/kg", "value": 5}, {"measurement": "convulsions", "setting": "Limousin ewes; hexachlorophene 90 mg/kg oral, 5 days, one animal of the group", "value": "in one animal of the group, convulsions were observed"}, {"measurement": "clinical signs", "setting": "Limousin ewes; [8]", "value": "a sustained state of exhaustion was noted in the animals throughout the observation period"}, {"measurement": "loss of weight (in words)", "setting": "Limousin ewes; [8]", "value": "General loss of weight was noted"}, {"measurement": "decrease of the weight within five days", "setting": "Limousin ewes; hexachlorophene 90 mg/kg oral, unprotected group", "value": 14.38, "unit": "%"}, {"measurement": "average weight", "setting": "Limousin ewes; hexachlorophene 90 mg/kg oral, unprotected after five days (48.6 kg before), protected with diphenylamine 2 mg/kg, remained stable", "value": 41.66, "unit": "kg"}]}, {"smiles": "[O-][S+](c1cc(Cl)cc(Cl)c1O)c1cc(Cl)cc(Cl)c1O", "note": "[bithionol sulfoxide]", "values": [{"measurement": "mortality at 168 h", "setting": "[7]; bithionol sulfoxide 450 mg/kg oral, Group II with diphenylamine 22.5 mg/kg", "value": 0, "unit": "%"}, {"measurement": "mortality at 168 h", "setting": "[7]; bithionol sulfoxide 600 mg/kg oral, Group II with diphenylamine 30 mg/kg", "value": 10, "unit": "%"}, {"measurement": "mortality at 168 h", "setting": "[7]; bithionol sulfoxide 800 mg/kg oral, Group II with diphenylamine 40 mg/kg", "value": 20, "unit": "%"}, {"measurement": "mortality at 168 h", "setting": "[7]; bithionol sulfoxide 1066 mg/kg oral, Group II with diphenylamine 53 mg/kg", "value": 40, "unit": "%"}, {"measurement": "mortality at 168 h", "setting": "[7]; bithionol sulfoxide 1420 mg/kg oral, Group II with diphenylamine 71 mg/kg", "value": 30, "unit": "%"}]}]}
